Measurements: patent US20090291048A1, “LEUKOCYTE-BINDING POLYPEPTIDES AND USES THEREOF” (Baker IDI Heart and Diabetes Institute Holdings Limited, priority 2005, published 2009)

System: GPIIb/IIIa (αIIbβ3, CD41/CD61), native or GFFKR-deleted, on CHO cells
Experiment: Flow cytometry cross-reactivity with GPIIb/IIIa-expressing CHO cells
Format: binding
Conditions: CHO cells with native (non-activated) or GFFKR-deleted (activated) GPIIb/IIIa
Method: Cross-reactivity with another fibrinogen binding integrin was assessed in flow cytometry using CHO cells expressing either a GFFKR-deleted and thereby activated GPIIb/IIIa or the native and thereby non-activated platelet integrin GPIIb/IIIa (details of cell generation have been described previously).^30,31 The expression of the activated conformation was determined by the binding of the activation-specific antibody Pac-1. MAN-1 binding was measured by an Alexa Fluor 488-conjugated anti-His-tag secondary antibody. […] Thus, no cross-reactivity to GPIIb/IIIa was seen. A typical result out of three experiments is shown.
Since one of the Mac-1 ligands, fibrinogen, also binds to the platelet integrin GPIIb/IIIa (αIIIbβ3, CD41/CD61) potential cross-reactivity of MAN-1 with this integrin was also evaluated. For this purpose, recombinant CHO cell lines were used, expressing native, non-activated and GFFKR-deleted, activated GPIIb/IIIa as described elsewhere (O'Toole et al J. Cell Biol. 1994; 124:1047-1059; Peter et al, J Exp Med. 1995; 181:315-326; Tadokoro et al Science. 2003; 302:103-106).

Chain of GPIIb/IIIa (αIIbβ3, CD41/CD61), native or GFFKR-deleted, on CHO cells (P08514 32-887 limits assumed, stated change not applied): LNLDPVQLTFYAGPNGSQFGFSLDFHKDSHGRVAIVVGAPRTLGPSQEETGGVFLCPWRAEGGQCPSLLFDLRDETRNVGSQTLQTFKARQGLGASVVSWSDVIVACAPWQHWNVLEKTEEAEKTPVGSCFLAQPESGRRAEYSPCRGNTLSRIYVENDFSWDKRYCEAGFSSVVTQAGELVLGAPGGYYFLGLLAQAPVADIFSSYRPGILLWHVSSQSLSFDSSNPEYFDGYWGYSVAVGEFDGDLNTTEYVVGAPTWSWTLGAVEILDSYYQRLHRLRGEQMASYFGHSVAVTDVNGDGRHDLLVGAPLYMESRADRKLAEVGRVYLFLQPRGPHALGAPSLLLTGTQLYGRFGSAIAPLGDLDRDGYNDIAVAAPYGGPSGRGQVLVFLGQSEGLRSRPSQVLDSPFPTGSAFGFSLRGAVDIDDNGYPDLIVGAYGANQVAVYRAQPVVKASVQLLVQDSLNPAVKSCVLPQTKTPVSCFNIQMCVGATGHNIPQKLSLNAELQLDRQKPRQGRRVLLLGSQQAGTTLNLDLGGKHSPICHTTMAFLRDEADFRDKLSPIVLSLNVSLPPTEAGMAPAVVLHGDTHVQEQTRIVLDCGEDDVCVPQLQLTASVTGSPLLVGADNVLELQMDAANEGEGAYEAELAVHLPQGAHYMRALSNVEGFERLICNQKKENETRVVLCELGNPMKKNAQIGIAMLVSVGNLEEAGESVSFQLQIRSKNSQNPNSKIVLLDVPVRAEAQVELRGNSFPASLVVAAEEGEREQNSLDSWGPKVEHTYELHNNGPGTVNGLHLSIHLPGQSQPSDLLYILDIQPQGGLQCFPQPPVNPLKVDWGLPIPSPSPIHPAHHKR
Chain of GPIIb/IIIa (αIIbβ3, CD41/CD61), native or GFFKR-deleted, on CHO cells (P08514 891-1019 limits assumed, stated change not applied): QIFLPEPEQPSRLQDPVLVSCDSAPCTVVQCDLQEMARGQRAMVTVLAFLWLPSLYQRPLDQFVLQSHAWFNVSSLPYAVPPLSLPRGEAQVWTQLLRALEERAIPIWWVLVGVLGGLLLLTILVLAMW
Chain of GPIIb/IIIa (αIIbβ3, CD41/CD61), native or GFFKR-deleted, on CHO cells (P05106 27-788, stated change not applied, further chain): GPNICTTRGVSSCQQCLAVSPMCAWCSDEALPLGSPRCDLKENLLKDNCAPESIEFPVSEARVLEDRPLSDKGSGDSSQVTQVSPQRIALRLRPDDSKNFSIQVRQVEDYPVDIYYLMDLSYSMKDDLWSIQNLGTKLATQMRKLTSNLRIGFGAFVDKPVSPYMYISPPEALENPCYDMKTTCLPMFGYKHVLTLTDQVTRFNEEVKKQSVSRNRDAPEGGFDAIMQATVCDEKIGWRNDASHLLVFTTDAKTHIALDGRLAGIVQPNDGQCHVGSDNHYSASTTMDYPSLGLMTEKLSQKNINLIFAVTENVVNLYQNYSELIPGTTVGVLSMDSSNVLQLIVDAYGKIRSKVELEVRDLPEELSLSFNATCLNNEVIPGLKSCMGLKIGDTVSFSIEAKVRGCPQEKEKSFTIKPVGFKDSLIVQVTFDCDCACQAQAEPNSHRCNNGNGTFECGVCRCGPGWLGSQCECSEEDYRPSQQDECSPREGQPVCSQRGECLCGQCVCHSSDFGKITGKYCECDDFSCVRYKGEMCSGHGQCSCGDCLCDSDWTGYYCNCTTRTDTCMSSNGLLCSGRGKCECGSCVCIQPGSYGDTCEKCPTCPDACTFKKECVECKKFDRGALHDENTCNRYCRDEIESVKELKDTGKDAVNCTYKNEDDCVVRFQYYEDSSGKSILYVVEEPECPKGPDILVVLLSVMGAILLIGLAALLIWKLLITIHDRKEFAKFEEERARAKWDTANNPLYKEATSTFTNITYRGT

Pac-1
Binding to GPIIb/IIIa: binds to the activated GPIIb/IIIa
